Laboratory results: patent US20060166867A1, “Novel conjugates of polysaccharides and uses thereof” (priority 2003, published 2006)
Read-outs that look alike come from different tables or passages of the source.

Legend:
HIV-1 IIIB = assay: microbe, parasite or virus in culture; format: cell-based; conditions: for inhibition activity (anti-HIV): in up to 50 μM concentrations
Experimental: (§1) Inhibition of HIV-1 cell replication was tested using the cMAGI assay, which is based on the ability of HIV-1 TAT to transactivate the expression of an integrated β-galactosidase reporter gene driven by the HIV-LTR (B. Chackeria et al., J. Virol., (1997) 71, 3932; Collins et al., Nat. Med. (2000) 6, 475). The β-galactosidase reporter is modified to remain localized in the nucleus where it can be detected with the X-gal (5-bromo-4-chloro-3indoyl-β-D-galactopyranoside) substrate as an intense nuclear stain within a few days of infection.
(§2) HIV-1 isolates were propagated by subculture in MT2 cells (Litovchick et al. (2001) supra). Aliquots of cell-free culture supernatants were used as viral inoculum. PAACs were dissolved in the RPMI 1640 medium. Cytotoxicity determinations were carried out in MT2 cells by trypan blue exclusion assay. Viral inhibition was determined by incubating MT2 or cMAGI HIV-1 reporter cells with 0.2-0.5 multiplicity of infection of HIV-1 wild type or resistant virus for 4 days at 37° C. in the presence or absence of various concentrations of pAACs. HIV-1 infection of cMAGI cells was determined by counting the number of HIV-1-infected cells (stained blue). The cytopathic effects of the viral infection of MT2 cells were also analyzed by microscopic assessment of syncytium formation.

in vitro = format: cell-based; conditions: human, read-out: Cytotoxicity
Experimental: Cytotoxicity of the various pAACs was determined using the trypan blue exclusion assay. In brief, a sample of the cell suspension was diluted 1:1 (v/v) with 0.4% trypan blue and the cells were counted using a hemocytometer. Results are expressed as the percentage of dead cells.
as §2

CXCR4 = target: T1, CXCR4 (Homo sapiens, UniProt P61073); assay: Competition with 12G5 mAb binding to CXCR4 on MT2 cells (flow cytometry); conditions: for median fluorescent intensity (MFI) of 12G5 mAb binding to MT2 cells: without compound 55.56, isotype control 4.0
T1 construct: incubated at 4° C. with anti-CXCR4 mAb, 12G5, conjugated to phycoerithrine (PE); endogenous in cells; host or cells: MT2 cells
Experimental: Interaction of pAACs and arginine peptides with CXCR4 coreceptor: Interactions of pAACs and arginine-peptides with CXCR4 were determined by flow cytometry (FACS-Scan, Becton Dickinson) as previously described (Litovich (2001) supra). In brief, 0.5×10^6 MT2 cells were washed with ice-cold PBS containing 0.1% sodium azide (wash buffer) and were incubated at 4° C. with anti-CXCR4 mAb, 12G5, conjugated to phycoerithrine (PE), in the absence or presence of different concentrations of pAACs and arginine peptides. After 30 minutes of incubation, the cells were washed with ice-cold wash buffer and fixed in PBS containing 1% paraformaldehyde. Non-specific fluorescence was assessed using an isotype control. For each sample 10,000 events were acquired. Data were analyzed and processed using CellQuest™ software (Becton Dickinson).

[1] = test system: HIV-1 clinical isolate Clade A; format: cell-based
Experimental: as §1, §2

[2] = test system: HIV-1 Protease resistant virus; format: cell-based; conditions: Table 4; read-out: EC50 Protease^Res
Experimental: as §1, §2

[3] = test system: HIV-1 clinical isolate Clade C; format: cell-based
Experimental: as §1, §2

[4] = test system: HIV-1 AZT resistant virus; format: cell-based; conditions: Table 4; read-out: EC50 AZT^Res
Experimental: as §1, §2

HIV-1 Ba-L = format: cell-based; conditions: Table 4
Experimental: as §1, §2

[5] = test system: HIV-1 NeoR6 resistant virus; format: cell-based; conditions: read-out: EC50 NeoR6^Res; Table 4
Experimental: as §1, §2

[6] = test system: HIV-1 wild-type and NeoR6 resistant isolates; conditions: cited from earlier work
[7] = Table 3, against HIV-1 IIIB virus, read-out: EC50
[8] = MT2 cells, Table 3, trypan blue exclusion
[9] = Table 4, tryphan blue exclusion assay for MT2 cells
[10] = Table 4, read-out: EC50 Clade A
[11] = Table 4, read-out: EC50 Clade C

T1 sequence (P61073 whole entry): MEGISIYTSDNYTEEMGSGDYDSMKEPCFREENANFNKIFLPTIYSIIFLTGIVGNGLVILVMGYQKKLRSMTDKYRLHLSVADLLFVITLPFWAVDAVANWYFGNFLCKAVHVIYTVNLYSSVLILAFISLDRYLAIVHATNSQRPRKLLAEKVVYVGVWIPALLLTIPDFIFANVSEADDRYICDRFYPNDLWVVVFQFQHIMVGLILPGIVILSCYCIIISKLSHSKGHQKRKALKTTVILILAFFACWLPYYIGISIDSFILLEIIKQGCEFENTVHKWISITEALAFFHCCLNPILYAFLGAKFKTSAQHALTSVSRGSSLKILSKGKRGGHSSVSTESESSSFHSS

Molecule: N=C(N)NCCC[C@H](NC(=O)[C@H](CCCNC(=N)N)NC(=O)[C@H](CCCNC(=N)N)NC(=O)[C@H](CCCNC(=N)N)NC(=O)[C@H](CCCNC(=N)N)NC(=O)[C@@H](N)CCCNC(=N)N)C(=O)O [Compound 1, L-Arg-6mer-NH2]
- EC50 (HIV-1 IIIB; [7]): 110 µM
- inhibition activity (anti-HIV) (HIV-1 IIIB): no inhibition activity

Molecule: N=C(N)NCCC[C@H](NC(=O)[C@H](CCCNC(=N)N)NC(=O)[C@H](CCCNC(=N)N)NC(=O)[C@H](CCCNC(=N)N)NC(=O)[C@H](CCCNC(=N)N)NC(=O)[C@@H](N)CCCNC(=N)N)C(=O)NC[C@H]1O[C@H](O[C@H]2[C@H](O)[C@@H](O)[C@H](N)C[C@@H]2N)[C@H](N)[C@@H](O)[C@@H]1O [Compound 2, L-Arg-6-mer-neamine]
- EC50 (HIV-1 IIIB; [7]): 70 ± 10 µM
- CC50 (in vitro; [8]): 210 µM
- inhibition at 20 µM (CXCR4; read-out: % Inhibition of 12G5 mAb binding to CXCR4, 20 μM): 35.4%

Molecule: N=C(N)NCCC[C@H](NC(=O)[C@H](CCCNC(=N)N)NC(=O)[C@H](CCCNC(=N)N)NC(=O)[C@H](CCCNC(=N)N)NC(=O)[C@H](CCCNC(=N)N)NC(=O)[C@@H](N)CCCNC(=N)N)C(=O)NC[C@@H]1O[C@H](O[C@H]2[C@@H](O)[C@H](O[C@@H]3[C@@H](O)[C@H](N)C[C@H](N)[C@H]3O[C@H]3O[C@H](CO)[C@@H](O)[C@H](O)[C@H]3N)O[C@@H]2CO)[C@H](N)[C@@H](O)[C@@H]1O [Compound 3, L-Arg-6-mer-paromomycin]
- EC50 (HIV-1 IIIB; [7]): 31 ± 10 µM
- CC50 (in vitro; [8]): 160 µM

Molecule: N=C(N)NCCC[C@H](NC(=O)[C@H](CCCNC(=N)N)NC(=O)[C@H](CCCNC(=N)N)NC(=O)[C@H](CCCNC(=N)N)NC(=O)[C@H](CCCNC(=N)N)NC(=O)[C@H](CCCNC(=N)N)NC(=O)[C@H](CCCNC(=N)N)NC(=O)[C@H](CCCNC(=N)N)NC(=O)[C@@H](N)CCCNC(=N)N)C(=O)NC[C@H]1O[C@H](O[C@H]2[C@H](O)[C@@H](O)[C@H](N)C[C@@H]2N)[C@H](N)[C@@H](O)[C@@H]1O [Compound 6, L-Arg-9-mer-neamine]
- EC50 (HIV-1 IIIB; [7]): 37.5 ± 2.5 µM
- CC50 (in vitro; [8]): 175 µM
- inhibition at 80 µM (CXCR4; read-out: % Inhibition of 12G5 mAb binding to CXCR4, 80 μM): 30.1%

Molecule: N=C(N)NCCC[C@H](NC(=O)[C@H](CCCNC(=N)N)NC(=O)[C@H](CCCNC(=N)N)NC(=O)[C@H](CCCNC(=N)N)NC(=O)[C@H](CCCNC(=N)N)NC(=O)[C@H](CCCNC(=N)N)NC(=O)[C@H](CCCNC(=N)N)NC(=O)[C@H](CCCNC(=N)N)NC(=O)[C@@H](N)CCCNC(=N)N)C(=O)NC[C@@H]1O[C@H](O[C@H]2[C@@H](O)[C@H](O[C@@H]3[C@@H](O)[C@H](N)C[C@H](N)[C@H]3O[C@H]3O[C@H](CO)[C@@H](O)[C@H](O)[C@H]3N)O[C@@H]2CO)[C@H](N)[C@@H](O)[C@@H]1O [Compound 7, L-Arg-9-mer-paromomycin]
- EC50 (HIV-1 IIIB; [7]): 31 ± 9 µM
- CC50 (in vitro; [8]): 140 µM

Molecule: CC(=O)N[C@H](CCCNC(=N)N)C(=O)N[C@H](CCCNC(=N)N)C(=O)N[C@H](CCCNC(=N)N)C(=O)N[C@H](CCCNC(=N)N)C(=O)N[C@H](CCCNC(=N)N)C(=O)N[C@H](CCCNC(=N)N)C(=O)O [Compound 9, D-Arg-6-mer-NHAc]
- EC50 (HIV-1 IIIB; Table 4, read-out: EC50 IIIB): 5.8 ± 1.7 µM
- CC50 (in vitro; [9]): 170 µM
- EC50 ([1]; clinical isolate Clade A): 8 ± 1 µM
- EC50 [2]: 4.9 ± 1 µM
- EC50 ([3]; clinical isolate Clade C): 5.3 ± 0.3 µM
- EC50 [4]: 15.2 ± 6.2 µM
- EC50 (HIV-1 Ba-L): > 50 µM
- EC50 [5]: 6.8 ± 0.7 µM
- inhibition at 2 µM (CXCR4; 2 μM, read-out: % Inhibition of 12G5 mAb binding to CXCR4): 1.6%
- inhibition at 10 µM (CXCR4; 10 μM, read-out: % Inhibition of 12G5 mAb binding to CXCR4): 70.9%

Molecule: CC(=O)N[C@H](CCCNC(=N)N)C(=O)N[C@H](CCCNC(=N)N)C(=O)N[C@H](CCCNC(=N)N)C(=O)N[C@H](CCCNC(=N)N)C(=O)N[C@H](CCCNC(=N)N)C(=O)N[C@H](CCCNC(=N)N)C(=O)NC[C@H]1O[C@H](O[C@H]2[C@H](O)[C@@H](O)[C@H](N)C[C@@H]2N)[C@H](N)[C@@H](O)[C@@H]1O [Compound 10, D-Arg-6-mer-neamine]
- EC50 (HIV-1 IIIB; Table 4, read-out: EC50 IIIB): 1.8 ± 0.1 µM
- CC50 (in vitro; [9]): 150 µM
- EC50 [1, 10]: 3.2 ± 1.3 µM
- EC50 [2]: 2.2 ± 0.4 µM
- EC50 [3, 11]: 1.7 ± 0.1 µM
- EC50 [4]: 7 ± 4 µM
- EC50 (HIV-1 Ba-L): > 50 µM
- EC50 [5]: 2.6 ± 1.2 µM
- % Inhibition of 12G5 mAb binding to CXCR4 (CXCR4; 2 μM): 91.1%
- median fluorescent intensity (MFI) of 12G5 mAb binding to MT2 cells (CXCR4; 2 μM): 9.6
- median fluorescent intensity (MFI) of 12G5 mAb binding to MT2 cells (CXCR4; 10 μM): 3.3
- inhibition at 2 µM (CXCR4; read-out: % Inhibition of 12G5 mAb binding to CXCR4, 2 μM): 91%
- inhibition at 10 µM (CXCR4; read-out: % Inhibition of 12G5 mAb binding to CXCR4, 10 μM): 100%

Molecule: N=C(N)NCCCC(N)C(=O)NC(CCCNC(=N)N)C(=O)NC(CCCNC(=N)N)C(=O)NC(CCCNC(=N)N)C(=O)NC(CCCNC(=N)N)C(=O)NC(CCCNC(=N)N)C(=O)NC(CCCNC(=N)N)C(=O)NC(CCCNC(=N)N)C(=O)NC(CCCNC(=N)N)C(=O)NC[C@H]1O[C@H](O[C@H]2[C@H](O)[C@@H](O)[C@H](N)C[C@@H]2N)[C@H](N)[C@@H](O)[C@@H]1O (stereo partly drawn) [Compound 16, D/L-Arg-9-mer-neamine]
- CC50 (in vitro; [8]): 160 µM

Molecule: N=C(N)NCCC[C@H](NC(=O)[C@@H](N)CCCNC(=N)N)C(=O)NCC1OC(OC2C(N)CC(N)C(O)C2O)C(N)C(O)C1O (stereo partly drawn) [Compound 21, L-Arg-2-mer-neamine]
- EC50 (HIV-1 IIIB; [7]): ~46 µM

Molecule: NC[C@H]1O[C@H](O[C@H]2[C@H](O)[C@@H](O)[C@H](N)C[C@@H]2N)[C@H](N)[C@@H](O)[C@@H]1O [neamine, Neamine, reference compound]
- inhibition activity (anti-HIV) (HIV-1 IIIB): no inhibition activity

Molecule: D-Arg-6-mer-neomycin [Compound 11]
- EC50 (HIV-1 IIIB; Table 4, read-out: EC50 IIIB): 2.1 ± 0.6 µM
- EC50 [1, 10]: 5.7 ± 2.8 µM
- EC50 [2]: 4 ± 1 µM
- EC50 [3, 11]: 3 ± 0.8 µM
- EC50 [4]: 10.4 ± 4.1 µM
- EC50 (HIV-1 Ba-L): > 50 µM
- EC50 [5]: 5.3 ± 2.5 µM
- % Inhibition of 12G5 mAb binding to CXCR4 (CXCR4; 2 μM): 79%
- % Inhibition of 12G5 mAb binding to CXCR4 (CXCR4; 2 μM, listed as r6-D-arginine-neomycin): 91.1%
- % Inhibition of 12G5 mAb binding to CXCR4 (CXCR4; 10 μM): 99.3%

Molecule: L-Arg-6-mer-neomycin [Compound 4]
- EC50 (HIV-1 IIIB; [7]): 40 ± 12 µM

Molecule: tri-arginine gentamycin C1 conjugate [Compound R3G]
- times more resistant, NeoR6^res isolates than wild-type virus [6]: about 5 times
- EC50 ([6]; wild-type and NeoR6 resistant isolates): 4.1 µM
